The source of these data is patent publication US9637491B2, “Pyrazolo[4,3-D]pyrimidines as kinase inhibitors” (Origenis GmbH, priority 2012, dated 2017).

The target in the test is T1, SYK kinase (Homo sapiens, UniProt P43405).
T1 construct: purchased Invitrogen, Carlsbad
As to the kind of experiment: SYK assay (OMNIA Kinase Assay, Invitrogen). The format is biochemical. Particulars: SYK Activities; 1 mM ATP, 10 μM Omnia Peptide Substrate Tyr 7, 30° C. Summed up:
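SYK was added last to start phosphorylation of a chelation-enhanced SOX peptide substrate (10 μM) in the presence of 1 mM ATP and 0.2 mM DTT at 30° C. Kinetic readings at λex 360/λem 485 nm over 30 min gave velocities, fitted sigmoidally against compound concentration to give IC50.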

pIC50: −log10 of the molar value.

As a reminder, the pIC50 is the negative decadic logarithm of the IC50, by convention in mol/L. Low readings indicate a high IC50, high ones a low IC50. In the case of `CC(C)n1cc(Nc2nc(-c3cccs3)nc3cn[nH]c23)cn1` [Example 431, N-(1-isopropyl-1H-pyrazol-4-yl)-5-(thiophen-2-yl)-1H-pyrazolo[4,3-d]pyrimidin-7-amine], the negative logarithm of the IC50 (pIC50) is 7.00 to 8.00.

In turn, `CC(C)(C)n1cc(Nc2nc(C3CCC3)nc3cn[nH]c23)cn1` [Example 222, N-(1-(tert-butyl)-1H-pyrazol-4-yl)-5-cyclobutyl-1H-pyrazolo[4,3-d]pyrimidin-7-amine] gave a pIC50 of 7.00 to 8.00.

In the case of `O=C1CSc2ccc(Nc3nc(-c4ccc5cn[nH]c5c4)nc4cn[nH]c34)cc2N1` [Example 520, 6-((5-(1H-indazol-6-yl)-1H-pyrazolo[4,3-d]pyrimidin-7-yl)amino)-2H-benzo[b][1,4]thiazin-3(4H)-one], the pIC50 was 6.00 to 7.00.

In turn, `c1csc(-c2nc(Nc3cnn(C4CCOCC4)c3)c3[nH]ncc3n2)c1` [Example 430, N-(1-(tetrahydro-2H-pyran-4-yl)-1H-pyrazol-4-yl)-5-(thiophen-2-yl)-1H-pyrazolo[4,3-d]pyrimidin-7-amine] gave a negative-log IC50 (pIC50) of 7.00 to 8.00.

`O=C1COc2ccc(Nc3nc(-c4ccc5cn[nH]c5c4)nc4cn[nH]c34)cc2N1` [Example 519, 6-((5-(1H-indazol-6-yl)-1H-pyrazolo[4,3-d]pyrimidin-7-yl)amino)-2H-benzo[b][1,4]oxazin-3(4H)-one] had a pIC50 of over 8.00.

Molecule `CC(=O)N1CCN(c2ccc(Nc3nc(-c4cccc(N)c4)nc4cn[nH]c34)cc2)CC1` [Example 14, 1-(4-(4-((5-(3-aminophenyl)-1H-pyrazolo[4,3-d]pyrimidin-7-yl)amino)phenyl)piperazin-1-yl)ethan-1-one] had a pIC50 of 6.00 to 7.00.

Take `CC(C(=O)O)n1cc(Nc2nc(-c3ccc4cn[nH]c4c3)nc3cn[nH]c23)cn1` (centres unmarked) [Example 493, 2-(4-((5-(1H-indazol-6-yl)-1H-pyrazolo[4,3-d]pyrimidin-7-yl)amino)-1H-pyrazol-1-yl)propanoic acid]: the pIC50 is 6.00 to 7.00.

Turning to `CN1CCN(C2CCN(c3ccc(Nc4nc(-c5ccccc5NS(C)(=O)=O)nc5cn[nH]c45)cc3)CC2)CC1` [Example 29, N-(2-(7-((4-(4-(4-methylpiperazin-1-yl)piperidin-1-yl)phenyl)amino)-1H-pyrazolo[4,3-d]pyrimidin-5-yl)phenyl)methanesulfonamide], the pIC50 was 7.00 to 8.00.

`O=c1cc(Nc2nc(C3CC3)nc3cn[nH]c23)ccn1C1CC1` [Example 296, 1-cyclopropyl-4-((5-cyclopropyl-1H-pyrazolo[4,3-d]pyrimidin-7-yl)amino)pyridin-2(1H)-one]: the pIC50 was 7.00 to 8.00.

`CS(=O)(=O)Nc1cccc(-c2nc(Nc3cnn(CCO)c3)c3[nH]ncc3n2)c1` [Example 262, N-(3-(7-((1-(2-hydroxyethyl)-1H-pyrazol-4-yl)amino)-1H-pyrazolo[4,3-d]pyrimidin-5-yl)phenyl)methanesulfonamide] gave a pIC50 of 6.00 to 7.00.

`Fc1cc(Nc2nc(-c3ccno3)nc3cn[nH]c23)ccc1N1CCOCC1` [Example 70, N-(3-fluoro-4-morpholinophenyl)-5-(isoxazol-5-yl)-1H-pyrazolo[4,3-d]pyrimidin-7-amine]: the pIC50 is 6.00 to 7.00.

The molecule `c1cc(-c2nc(Nc3cnn(C4CCOCC4)c3)c3[nH]ncc3n2)co1` [Example 146, 5-(furan-3-yl)-N-(1-(tetrahydro-2H-pyran-4-yl)-1H-pyrazol-4-yl)-1H-pyrazolo[4,3-d]pyrimidin-7-amine] gave a negative logarithm of the IC50 (pIC50) of over 8.00.

The molecule `CN(C)C(=O)Cn1cc(Nc2nc(-c3cccc(-c4cccnc4)c3)nc3cn[nH]c23)cn1` [Example 466, N,N-dimethyl-2-(4-((5-(3-(pyridin-3-yl)phenyl)-1H-pyrazolo[4,3-d]pyrimidin-7-yl)amino)-1H-pyrazol-1-yl)acetamide] showed a negative logarithm of the IC50 (pIC50) of 7.00 to 8.00.

Turning to `COCCn1cc(Nc2nc(-c3ccoc3)nc3cn[nH]c23)cn1` [Example 199, 5-(furan-3-yl)-N-(1-(2-methoxyethyl)-1H-pyrazol-4-yl)-1H-pyrazolo[4,3-d]pyrimidin-7-amine], the pIC50 is 6.00 to 7.00.

Molecule `N#CCn1cc(Nc2nc(-c3ccoc3)nc3cn[nH]c23)cn1` [Example 241, 2-(4-((5-(furan-3-yl)-1H-pyrazolo[4,3-d]pyrimidin-7-yl)amino)-1H-pyrazol-1-yl)acetonitrile] showed a negative-log IC50 (pIC50) of over 8.00.

Regarding `OCCN1CCN(c2ccc(Nc3nc(-c4ccc5cn[nH]c5c4)nc4cn[nH]c34)cc2)CC1` [Example 422, 2-(4-(4-((5-(1H-indazol-6-yl)-1H-pyrazolo[4,3-d]pyrimidin-7-yl)amino)phenyl)piperazin-1-yl)ethan-1-ol], the pIC50 is 7.00 to 8.00.

`CC(C)Cn1cc(Nc2nc(C3CCC3)nc3cn[nH]c23)cn1` [Example 234, 5-cyclobutyl-N-(1-isobutyl-1H-pyrazol-4-yl)-1H-pyrazolo[4,3-d]pyrimidin-7-amine] showed a negative logarithm of the IC50 (pIC50) of 6.00 to 7.00.

`CN1CCC(n2cc(Nc3nc(-c4ccco4)nc4cn[nH]c34)cn2)CC1` [Example 198, 5-(furan-2-yl)-N-(1-(1-methylpiperidin-4-yl)-1H-pyrazol-4-yl)-1H-pyrazolo[4,3-d]pyrimidin-7-amine] had a negative-log IC50 (pIC50) of over 8.00.

For `O=C1OCCN1c1ccc(Nc2nc(-c3ccoc3)nc3cn[nH]c23)cc1` [Example 98], the negative logarithm of the IC50 (pIC50) was 6.00 to 7.00.

Regarding `c1ccc(-n2cc(Nc3nc(-c4ccoc4)nc4cn[nH]c34)cn2)nc1` [Example 484, 5-(furan-3-yl)-N-(1-(pyridin-2-yl)-1H-pyrazol-4-yl)-1H-pyrazolo[4,3-d]pyrimidin-7-amine], the pIC50 was 6.00 to 7.00.

Molecule `CC(=O)N1CCN(c2ccc(Nc3nc(C4CC4)nc4cn[nH]c34)cc2)CC1` [Example 33, 1-(4-(4-((5-cyclopropyl-1H-pyrazolo[4,3-d]pyrimidin-7-yl)amino)phenyl)piperazin-1-yl)ethan-1-one] showed a negative-log IC50 (pIC50) of 6.00 to 7.00.

For the molecule `CC(=O)N1CCC(n2cc(Nc3nc(-c4cocn4)nc4cn[nH]c34)cn2)CC1` [Example 130, 1-(4-(4-((5-(oxazol-4-yl)-1H-pyrazolo[4,3-d]pyrimidin-7-yl)amino)-1H-pyrazol-1-yl)piperidin-1-yl)ethan-1-one], the negative-log IC50 (pIC50) is 6.00 to 7.00.

In the case of `c1coc(-c2nc(Nc3ccc(N4CCOCC4)cc3)c3[nH]ncc3n2)c1` [Example 86, 5-(furan-2-yl)-N-(4-morpholinophenyl)-1H-pyrazolo[4,3-d]pyrimidin-7-amine], the negative-log IC50 (pIC50) is 7.00 to 8.00.

Turning to `COCCn1ncc(Nc2nc(-c3ccco3)nc3cn[nH]c23)c1F` [Example 403, N-(5-fluoro-1-(2-methoxyethyl)-1H-pyrazol-4-yl)-5-(furan-2-yl)-1H-pyrazolo[4,3-d]pyrimidin-7-amine], the negative logarithm of the IC50 (pIC50) was 6.00 to 7.00.

In turn, `CC(C)Cn1cc(Nc2nc(-c3ccc4cn[nH]c4c3)nc3cn[nH]c23)cn1` [Example 423, 5-(1H-indazol-6-yl)-N-(1-isobutyl-1H-pyrazol-4-yl)-1H-pyrazolo[4,3-d]pyrimidin-7-amine] had a pIC50 of 7.00 to 8.00.

`CN1C(=O)COc2ccc(Nc3nc(-c4ccoc4)nc4cn[nH]c34)cc21` [Example 488, 6-((5-(furan-3-yl)-1H-pyrazolo[4,3-d]pyrimidin-7-yl)amino)-4-methyl-2H-benzo[b][1,4]oxazin-3(4H)-one] gave a pIC50 of 7.00 to 8.00.

For `c1nn(C2CCNC2)cc1Nc1nc(C2CCC2)nc2cn[nH]c12` (centres unmarked) [Example 462, 5-cyclobutyl-N-(1-(pyrrolidin-3-yl)-1H-pyrazol-4-yl)-1H-pyrazolo[4,3-d]pyrimidin-7-amine], the negative-log IC50 (pIC50) was over 8.00.

`COCCCn1cc(Nc2nc(-c3cccc(NS(C)(=O)=O)c3)nc3cn[nH]c23)cn1` [Example 260, N-(3-(7-((1-(3-methoxypropyl)-1H-pyrazol-4-yl)amino)-1H-pyrazolo[4,3-d]pyrimidin-5-yl)phenyl)methanesulfonamide] gave a negative-log IC50 (pIC50) of 7.00 to 8.00.

The molecule `CN1C(=O)COc2ccc(Nc3nc(C4CC4)nc4cn[nH]c34)cc21` [Example 497, 6-((5-cyclopropyl-1H-pyrazolo[4,3-d]pyrimidin-7-yl)amino)-4-methyl-2H-benzo[b][1,4]oxazin-3(4H)-one] gave a pIC50 of 6.00 to 7.00.

`COc1ccc(Nc2nc(-c3c(F)cccc3F)nc3cn[nH]c23)cc1NC(C)=O` [Example 523, N-(5-((5-(2,6-difluorophenyl)-1H-pyrazolo[4,3-d]pyrimidin-7-yl)amino)-2-methoxyphenyl)acetamide] had a pIC50 of 6.00 to 7.00.

`CN1CCC(n2cc(Nc3nc(-c4cocn4)nc4cn[nH]c34)cn2)CC1` [Example 129, N-(1-(1-methylpiperidin-4-yl)-1H-pyrazol-4-yl)-5-(oxazol-4-yl)-1H-pyrazolo[4,3-d]pyrimidin-7-amine] had a pIC50 of 6.00 to 7.00.

In turn, `CC(=O)N1CCC(n2cc(Nc3nc(-c4cccc(NS(C)(=O)=O)c4)nc4cn[nH]c34)cn2)CC1` [Example 266, N-(3-(7-((1-(1-acetylpiperidin-4-yl)-1H-pyrazol-4-yl)amino)-1H-pyrazolo[4,3-d]pyrimidin-5-yl)phenyl)methanesulfonamide] showed a pIC50 of 6.00 to 7.00.

In the case of `Nc1ccccc1-c1nc(Nc2cnn(C3CCOCC3)c2)c2n[nH]cc2n1` [Example 531, 5-(2-aminophenyl)-N-(1-(tetrahydro-2H-pyran-4-yl)-1H-pyrazol-4-yl)-2H-pyrazolo[4,3-d]pyrimidin-7-amine], the negative-log IC50 (pIC50) was 6.00 to 7.00.

With `COc1ccc(Nc2nc(-c3cccc(C(=O)Nc4ccc(-c5cnco5)cc4)c3)nc3cn[nH]c23)cc1OC` [Example 319, 3-(7-((3,4-dimethoxyphenyl)amino)-1H-pyrazolo[4,3-d]pyrimidin-5-yl)-N-(4-(oxazol-5-yl)phenyl)benzamide], the pIC50 was 6.00 to 7.00.

`Nc1cccc(-c2nc(Nc3cnn(C4CCOCC4)c3)c3[nH]ncc3n2)c1` [Example 530, 5-(3-aminophenyl)-N-(1-(tetrahydro-2H-pyran-4-yl)-1H-pyrazol-4-yl)-1H-pyrazolo[4,3-d]pyrimidin-7-amine] had a pIC50 of 7.00 to 8.00.
